Calls of active or inactive are those of the source. No rule for the calls is given here.
Test system: CCRIS mutagenicity, Ames/micronucleus/aberration tests
Experiment: CCRIS mutagenicity studies

`O=NO` was tested, and the mutagenic call (End Point: IN VIVO MICRONUCLEUS, Test System: BONE MARROW POLYCHROMATIC ERYTHROCYTES, Species: MOUSE, Strain/Sex: DDY/MALE, Route: IP) was “inactive; negative”, the mutagenic call (End Point: IN VIVO MICRONUCLEUS, Test System: BONE MARROW POLYCHROMATIC ERYTHROCYTES, Species: MOUSE, Strain/Sex: DDY/MALE, Route: ORAL) was “inactive; negative” and the mutagenic call (End Point: In vitro chromosomal aberrations, Test System: Chinese hamster lung CHL/IU cells, Metabolic Activation: None) was “inactive; negative”. The mutagenic call (Test System: AMES SALMONELLA TYPHIMURIUM, Strain/Indicator: DJ400, Metabolic Activation: NONE, Method: PREINCUBATION) was “inactive; negative”, the mutagenic call (Test System: AMES SALMONELLA TYPHIMURIUM, Strain/Indicator: DJ400, Metabolic Activation: NONE, Method: STANDARD PLATE) was “inactive; negative” and the mutagenic call (Test System: AMES SALMONELLA TYPHIMURIUM, Strain/Indicator: DJ400, Metabolic Activation: RAT, LIVER, S-9, AROCLOR 1254, Method: PREINCUBATION) was “inactive; negative”. The mutagenic call (Test System: AMES SALMONELLA TYPHIMURIUM, Strain/Indicator: DJ400, Metabolic Activation: RAT, LIVER, S-9, AROCLOR 1254, Method: STANDARD PLATE) was “inactive; negative”, the mutagenic call (Test System: AMES SALMONELLA TYPHIMURIUM, Strain/Indicator: DJ460, Metabolic Activation: NONE, Method: PREINCUBATION) was “inactive; negative” and the mutagenic call (Test System: AMES SALMONELLA TYPHIMURIUM, Strain/Indicator: DJ460, Metabolic Activation: NONE, Method: STANDARD PLATE) was “inactive; negative”. The mutagenic call (Test System: AMES SALMONELLA TYPHIMURIUM, Strain/Indicator: DJ460, Metabolic Activation: RAT, LIVER, S-9, AROCLOR 1254, Method: PREINCUBATION) was “inactive; negative”, the mutagenic call (Test System: AMES SALMONELLA TYPHIMURIUM, Strain/Indicator: DJ460, Metabolic Activation: RAT, LIVER, S-9, AROCLOR 1254, Method: STANDARD PLATE) was “inactive; negative” and the mutagenic call (Test System: AMES SALMONELLA TYPHIMURIUM, Strain/Indicator: TA97, Metabolic Activation: NONE, Method: STANDARD PLATE) was “inactive; negative”. The mutagenic call (Test System: AMES SALMONELLA TYPHIMURIUM, Strain/Indicator: TA97, Metabolic Activation: RAT, LIVER, S-9, AROCLOR 1254, Method: STANDARD PLATE) was “inactive; negative”, the mutagenic call (Test System: AMES SALMONELLA TYPHIMURIUM, Strain/Indicator: TA98, Metabolic Activation: HAMSTER LIVER S-9, AROCLOR 1254 (30%), Method: PREINCUBATION) was “inactive; negative” and the mutagenic call (Test System: AMES SALMONELLA TYPHIMURIUM, Strain/Indicator: TA98, Metabolic Activation: HAMSTER, LIVER, S-9, AROCLOR 1254 (30%), Method: PREINCUBATION) was “inactive; negative”. The mutagenic call (Test System: AMES SALMONELLA TYPHIMURIUM, Strain/Indicator: TA98, Metabolic Activation: NONE, Method: PREINCUBATION) was “inactive; negative”, the mutagenic call (Test System: AMES SALMONELLA TYPHIMURIUM, Strain/Indicator: TA98, Metabolic Activation: NONE, Method: STANDARD PLATE) was “inactive; negative” and the mutagenic call (Test System: AMES SALMONELLA TYPHIMURIUM, Strain/Indicator: TA98, Metabolic Activation: RAT LIVER S-9, AROCLOR 1254 (30%), Method: PREINCUBATION) was “inactive; negative”. The mutagenic call (Test System: AMES SALMONELLA TYPHIMURIUM, Strain/Indicator: TA98, Metabolic Activation: RAT, LIVER, S-9, AROCLOR 1254 (30%), Method: PREINCUBATION) was “inactive; negative”, the mutagenic call (Test System: AMES SALMONELLA TYPHIMURIUM, Strain/Indicator: TA98, Metabolic Activation: RAT, LIVER, S-9, AROCLOR 1254, Method: STANDARD PLATE) was “inactive; negative” and the mutagenic call (Test System: AMES SALMONELLA TYPHIMURIUM, Strain/Indicator: TA98, Metabolic Activation: RAT, LIVER, S-9, Method: STANDARD PLATE) was “inactive; negative”. The mutagenic call (Test System: AMES SALMONELLA TYPHIMURIUM, Strain/Indicator: TA100, Metabolic Activation: HAMSTER LIVER S-9, AROCLOR 1254 (30%), Method: PREINCUBATION) was “active; positive”, the mutagenic call (Test System: AMES SALMONELLA TYPHIMURIUM, Strain/Indicator: TA100, Metabolic Activation: HAMSTER, LIVER, S-9, AROCLOR 1254 (30%), Method: PREINCUBATION) was “active; positive” and the mutagenic call (Test System: AMES SALMONELLA TYPHIMURIUM, Strain/Indicator: TA100, Metabolic Activation: NONE, Method: PREINCUBATION) was “active; positive”. The mutagenic call (Test System: AMES SALMONELLA TYPHIMURIUM, Strain/Indicator: TA100, Metabolic Activation: NONE, Method: STANDARD PLATE) was “active; positive”, the mutagenic call (Test System: AMES SALMONELLA TYPHIMURIUM, Strain/Indicator: TA100, Metabolic Activation: RAT LIVER S-9, AROCLOR 1254 (30%), Method: PREINCUBATION) was “active; positive” and the mutagenic call (Test System: AMES SALMONELLA TYPHIMURIUM, Strain/Indicator: TA100, Metabolic Activation: RAT, LIVER, S-9, AROCLOR 1254 (30%), Method: PREINCUBATION) was “active; positive”. The mutagenic call (Test System: AMES SALMONELLA TYPHIMURIUM, Strain/Indicator: TA100, Metabolic Activation: RAT, LIVER, S-9, AROCLOR 1254, Method: PREINCUBATION) was “active; positive”, the mutagenic call (Test System: AMES SALMONELLA TYPHIMURIUM, Strain/Indicator: TA100, Metabolic Activation: RAT, LIVER, S-9, AROCLOR 1254, Method: STANDARD PLATE) was “active; positive” and the mutagenic call (Test System: AMES SALMONELLA TYPHIMURIUM, Strain/Indicator: TA100, Metabolic Activation: RAT, LIVER, S-9, Method: STANDARD PLATE) was “active; positive”. For the same compound, the mutagenic call (Test System: AMES SALMONELLA TYPHIMURIUM, Strain/Indicator: TA102, Metabolic Activation: NONE, Method: PREINCUBATION) was “inactive; negative”, the mutagenic call (Test System: AMES SALMONELLA TYPHIMURIUM, Strain/Indicator: TA102, Metabolic Activation: NONE, Method: STANDARD PLATE) was “inactive; negative” and the mutagenic call (Test System: AMES SALMONELLA TYPHIMURIUM, Strain/Indicator: TA102, Metabolic Activation: RAT, LIVER, S-9, AROCLOR 1254, Method: PREINCUBATION) was “inactive; negative”. For the same compound, the mutagenic call (Test System: AMES SALMONELLA TYPHIMURIUM, Strain/Indicator: TA102, Metabolic Activation: RAT, LIVER, S-9, AROCLOR 1254, Method: STANDARD PLATE) was “inactive; negative”, the mutagenic call (Test System: AMES SALMONELLA TYPHIMURIUM, Strain/Indicator: TA104, Metabolic Activation: RAT, LIVER, S-9, AROCLOR 1254, Method: PREINCUBATION) was “active; positive” and the mutagenic call (Test System: AMES SALMONELLA TYPHIMURIUM, Strain/Indicator: TA1530, Metabolic Activation: NONE, Method: PREINCUBATION) was “active; positive”. For the same compound, the mutagenic call (Test System: AMES SALMONELLA TYPHIMURIUM, Strain/Indicator: TA1530, Metabolic Activation: NONE, Method: STANDARD PLATE) was “active; positive”, the mutagenic call (Test System: AMES SALMONELLA TYPHIMURIUM, Strain/Indicator: TA1530, Metabolic Activation: RAT, LIVER, S-9, AROCLOR 1254, Method: PREINCUBATION) was “active; positive” and the mutagenic call (Test System: AMES SALMONELLA TYPHIMURIUM, Strain/Indicator: TA1530, Metabolic Activation: RAT, LIVER, S-9, AROCLOR 1254, Method: STANDARD PLATE) was “active; positive”. For the same compound, the mutagenic call (Test System: AMES SALMONELLA TYPHIMURIUM, Strain/Indicator: TA1535, Metabolic Activation: NONE, Method: PREINCUBATION) was “active; positive”, the mutagenic call (Test System: AMES SALMONELLA TYPHIMURIUM, Strain/Indicator: TA1535, Metabolic Activation: NONE, Method: STANDARD PLATE) was “active; positive” and the mutagenic call (Test System: AMES SALMONELLA TYPHIMURIUM, Strain/Indicator: TA1535, Metabolic Activation: RAT, LIVER, S-9, AROCLOR 1254, Method: PREINCUBATION) was “active; positive”. The mutagenic call (Test System: AMES SALMONELLA TYPHIMURIUM, Strain/Indicator: TA1535, Metabolic Activation: RAT, LIVER, S-9, AROCLOR 1254, Method: STANDARD PLATE) was “active; positive”, the mutagenic call (Test System: AMES SALMONELLA TYPHIMURIUM, Strain/Indicator: TA1535, Metabolic Activation: RAT, LIVER, S-9, Method: STANDARD PLATE) was “active; positive” and the mutagenic call (Test System: AMES SALMONELLA TYPHIMURIUM, Strain/Indicator: TA1537, Metabolic Activation: NONE, Method: STANDARD PLATE) was “inactive; negative”. The mutagenic call (Test System: AMES SALMONELLA TYPHIMURIUM, Strain/Indicator: TA1537, Metabolic Activation: RAT, LIVER, S-9, AROCLOR 1254, Method: STANDARD PLATE) was “inactive; negative”, the mutagenic call (Test System: AMES SALMONELLA TYPHIMURIUM, Strain/Indicator: TA1538, Metabolic Activation: NONE, Method: STANDARD PLATE) was “inactive; negative” and the mutagenic call (Test System: AMES SALMONELLA TYPHIMURIUM, Strain/Indicator: TA1538, Metabolic Activation: RAT, LIVER, S-9, AROCLOR 1254, Method: STANDARD PLATE) was “inactive; negative”. The mutagenic call (Test System: AMES SALMONELLA TYPHIMURIUM, Strain/Indicator: TA1538, Metabolic Activation: RAT, LIVER, S-9, Method: STANDARD PLATE) was “inactive; negative”, the mutagenic call (Test System: AMES SALMONELLA TYPHIMURIUM, Strain/Indicator: YG1024, Metabolic Activation: NONE, Method: PREINCUBATION) was “inactive; negative” and the mutagenic call (Test System: AMES SALMONELLA TYPHIMURIUM, Strain/Indicator: YG1024, Metabolic Activation: NONE, Method: STANDARD PLATE) was “inactive; negative”. The mutagenic call (Test System: AMES SALMONELLA TYPHIMURIUM, Strain/Indicator: YG1024, Metabolic Activation: RAT, LIVER, S-9, AROCLOR 1254, Method: PREINCUBATION) was “inactive; negative”, the mutagenic call (Test System: AMES SALMONELLA TYPHIMURIUM, Strain/Indicator: YG1024, Metabolic Activation: RAT, LIVER, S-9, AROCLOR 1254, Method: STANDARD PLATE) was “inactive; negative” and the mutagenic call (Test System: CHINESE HAMSTER V-79, Strain/Indicator: V-79/6-THIOGUANINE, Metabolic Activation: NONE) was “active; positive”. For the same compound, the mutagenic call (Test System: E. COLI, Strain/Indicator: WP2, Metabolic Activation: NONE, Method: STANDARD PLATE) was “inactive; negative”, the mutagenic call (Test System: E. COLI, Strain/Indicator: WP2, Metabolic Activation: RAT, LIVER, S-9, AROCLOR 1254, Method: STANDARD PLATE) was “inactive; negative” and the mutagenic call (Test System: E.COLI, Strain/Indicator: WP2UVRA/PKM101, Metabolic Activation: NONE, Method: PREINCUBATION) was “inactive; negative”. For the same compound, the mutagenic call (Test System: E.COLI, Strain/Indicator: WP2UVRA/PKM101, Metabolic Activation: RAT LIVER S-9, PHENOBARBITAL AND 5,6-BENZOFLAVONE, Method: PREINCUBATION) was “inactive; negative” and the mutagenic call (Test System: MOUSE LYMPHOMA, Strain/Indicator: L5178Y (TK+/TK-), Metabolic Activation: NONE, Method: SUSPENSION/PLATE) was “active; positive”.

— PubChem BioAssay AID1259407 (Chemical Carcinogenesis Research Information System (CCRIS), 2018)
